From publication PMC4917279 (Journal of Medicinal Chemistry, 2016)

How the values were obtained:
Assay in all cases: KINOMEscan
Type in all cases: binding
Details in all cases: read-out: %Ctrl @ 1000 nM
ACVR2B = biological target: T1, ACVR2B (Homo sapiens, UniProt Q13705)
T1 construct: purchased DiscoveRx

ALK(L1196M) = biological target: T2, ALK(L1196M) (Homo sapiens, UniProt Q9UM73, L1196M)
T2 construct: purchased DiscoveRx KINOMEscan

BMPR1B = biological target: T3, BMPR1B (Homo sapiens, UniProt O00238)
T3 construct: purchased DiscoveRx KINOMEscan

CDC2L5 = biological target: T4, CDC2L5 (Homo sapiens, UniProt Q14004)
T4 construct: purchased DiscoveRx KINOMEscan
Procedure: (§1) 1.1. Table S1 KINOMEscan Data. The KINOMEscan was performed at DiscoveRx. For
(§2) a more detailed description of this assay technology, see: Fabian, M. A.; Biggs, W.
(§3) H., III; Treiber, D. K.; Atteridge, C. E.; Azimioara, M. D.; Benedetti, M. G.; Carter,
(§4) T. A.; Ciceri, P.; Edeen, P. T.; Floyd, M.; Ford, J. M.; Galvin, M.; Gerlach, J. L.;
(§5) Grotzfeld, R. M.; Herrgard, S.; Insko, D. E.; Insko, M. A.; Lai, A. G.; Lélias, J..M.;
(§6) Mehta, S. A.; Milanov, Z. V.; Velasco, A. M.; Wodicka, L. M.; Patel, H. K.;
(§7) Zarrinkar, P. P.; Lockhart, D. J. A small molecule–kinase interaction map for clinical
(§8) Target Gene Symbol %Ctrl @ 1000 nM BAY-598
(§9) ABL1(H396P)-nonphosphorylated 92
(§10) ABL1(Q252H)-nonphosphorylated 66
(§11) ABL1(T315I)-nonphosphorylated 77
(§12) ABL1-nonphosphorylated 79

PRP4 = biological target: T5, PRP4 (Homo sapiens, UniProt Q13523)
T5 construct: purchased DiscoveRx KINOMEscan
Procedure: as §1, §2, §3, §4, §5, §6, §7, §8, §9, §10, §11, §12

CDKL1 = biological target: T6, CDKL1 (Homo sapiens, UniProt Q00532)
T6 construct: purchased DiscoveRx KINOMEscan

CSNK1G1 = biological target: T7, CSNK1G1 (Homo sapiens, UniProt Q9HCP0)
T7 construct: purchased DiscoveRx KINOMEscan

[1] = biological target: T8, EGFR(L747-E749del, A750P) (Homo sapiens, UniProt P00533, A750P/DEL747-749)
T8 construct: purchased DiscoveRx KINOMEscan

EGFR(L858R,T790M) = biological target: T9, EGFR(L858R,T790M) (Homo sapiens, UniProt P00533, L858R/T790M)
T9 construct: purchased DiscoveRx KINOMEscan

FLT4 = biological target: T10, FLT4 (Homo sapiens, UniProt P35916)
T10 construct: purchased DiscoveRx KINOMEscan

HASPIN = biological target: T11, HASPIN (Homo sapiens, UniProt Q8TF76)
T11 construct: purchased DiscoveRx KINOMEscan

IGF1R = biological target: T12, IGF1R (Homo sapiens, UniProt P08069)
T12 construct: purchased DiscoveRx KINOMEscan

JNK1 = biological target: T13, JNK1 (Homo sapiens, UniProt P45983)
T13 construct: purchased DiscoveRx KINOMEscan

JNK3 = biological target: T14, JNK3 (Homo sapiens, UniProt P53779)
T14 construct: purchased DiscoveRx KINOMEscan

MAP3K2 = biological target: T15, MAP3K2 (Homo sapiens, UniProt Q9Y2U5)
T15 construct: purchased DiscoveRx KINOMEscan
T15 sequence (Q9Y2U5 whole entry): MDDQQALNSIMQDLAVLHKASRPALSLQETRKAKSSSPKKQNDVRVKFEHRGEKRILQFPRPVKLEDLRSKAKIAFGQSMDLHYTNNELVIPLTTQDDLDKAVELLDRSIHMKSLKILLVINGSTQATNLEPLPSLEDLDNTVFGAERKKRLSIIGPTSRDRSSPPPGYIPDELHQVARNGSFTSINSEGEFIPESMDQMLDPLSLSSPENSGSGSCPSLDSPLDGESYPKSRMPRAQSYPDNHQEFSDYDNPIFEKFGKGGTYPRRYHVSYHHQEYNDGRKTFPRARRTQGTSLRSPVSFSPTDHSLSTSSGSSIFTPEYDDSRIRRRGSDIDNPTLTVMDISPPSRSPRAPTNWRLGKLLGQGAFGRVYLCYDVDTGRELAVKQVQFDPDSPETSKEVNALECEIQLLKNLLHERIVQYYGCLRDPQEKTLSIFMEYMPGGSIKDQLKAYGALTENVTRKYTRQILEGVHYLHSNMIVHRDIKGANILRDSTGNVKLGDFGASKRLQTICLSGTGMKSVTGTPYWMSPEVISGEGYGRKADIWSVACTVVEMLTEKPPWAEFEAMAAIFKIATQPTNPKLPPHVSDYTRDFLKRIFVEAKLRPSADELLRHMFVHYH

MARK2 = biological target: T16, MARK2 (Homo sapiens, UniProt Q7KZI7)
T16 construct: purchased DiscoveRx KINOMEscan

MERTK = biological target: T17, MERTK (Homo sapiens, UniProt Q12866)
T17 construct: purchased DiscoveRx KINOMEscan

MYLK4 = biological target: T18, MYLK4 (Homo sapiens, UniProt Q86YV6)
T18 construct: purchased DiscoveRx KINOMEscan

NDR1 = biological target: T19, NDR1 (Homo sapiens, UniProt Q15208)
T19 construct: purchased DiscoveRx KINOMEscan
T19 sequence (Q15208 whole entry): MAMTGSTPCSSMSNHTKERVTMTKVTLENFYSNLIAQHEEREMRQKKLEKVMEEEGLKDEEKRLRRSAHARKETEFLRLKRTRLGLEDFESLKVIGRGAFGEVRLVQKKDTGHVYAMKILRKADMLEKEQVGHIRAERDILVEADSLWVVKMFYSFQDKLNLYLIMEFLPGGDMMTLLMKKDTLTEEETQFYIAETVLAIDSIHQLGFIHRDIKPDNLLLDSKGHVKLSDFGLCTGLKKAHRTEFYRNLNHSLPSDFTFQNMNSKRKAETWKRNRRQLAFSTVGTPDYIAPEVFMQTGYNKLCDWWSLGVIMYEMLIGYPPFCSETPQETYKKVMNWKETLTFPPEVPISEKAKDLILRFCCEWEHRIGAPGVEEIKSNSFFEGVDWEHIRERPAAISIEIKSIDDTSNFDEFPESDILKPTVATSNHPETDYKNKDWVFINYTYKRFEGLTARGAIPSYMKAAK

NEK1 = biological target: T20, NEK1 (Homo sapiens, UniProt Q96PY6)
T20 construct: purchased DiscoveRx KINOMEscan

PIM2 = biological target: T21, PIM2 (Homo sapiens, UniProt Q9P1W9)
T21 construct: purchased DiscoveRx KINOMEscan

PKAC-alpha = biological target: T22, PKAC-alpha (Homo sapiens, UniProt P17612)
T22 construct: purchased DiscoveRx KINOMEscan

PKN2 = biological target: T23, PKN2 (Homo sapiens, UniProt Q16513)
T23 construct: purchased DiscoveRx KINOMEscan

PRKCD = biological target: T24, PRKCD (Homo sapiens, UniProt Q05655)
T24 construct: purchased DiscoveRx KINOMEscan

PRKCQ = biological target: T25, PRKCQ (Homo sapiens, UniProt Q04759)
T25 construct: purchased DiscoveRx KINOMEscan
T25 sequence (Q04759 whole entry): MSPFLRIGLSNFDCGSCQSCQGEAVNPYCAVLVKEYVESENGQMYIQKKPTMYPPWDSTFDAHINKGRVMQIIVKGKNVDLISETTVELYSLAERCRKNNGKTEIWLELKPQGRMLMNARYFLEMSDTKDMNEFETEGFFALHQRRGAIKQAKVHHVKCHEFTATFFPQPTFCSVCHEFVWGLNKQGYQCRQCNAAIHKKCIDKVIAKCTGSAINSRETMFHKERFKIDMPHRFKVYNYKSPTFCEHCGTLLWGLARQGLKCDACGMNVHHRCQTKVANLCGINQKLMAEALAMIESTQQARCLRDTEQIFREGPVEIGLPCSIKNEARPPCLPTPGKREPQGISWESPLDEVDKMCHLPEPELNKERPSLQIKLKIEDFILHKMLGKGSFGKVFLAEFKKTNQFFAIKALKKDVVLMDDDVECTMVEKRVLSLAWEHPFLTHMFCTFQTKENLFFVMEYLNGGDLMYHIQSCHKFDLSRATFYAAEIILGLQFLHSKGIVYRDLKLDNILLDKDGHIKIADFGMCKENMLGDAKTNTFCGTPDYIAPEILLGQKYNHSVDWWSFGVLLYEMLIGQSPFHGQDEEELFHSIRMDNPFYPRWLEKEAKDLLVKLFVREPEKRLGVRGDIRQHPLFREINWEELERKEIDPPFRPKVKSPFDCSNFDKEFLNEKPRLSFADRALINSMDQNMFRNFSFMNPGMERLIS

RET = biological target: T26, RET (Homo sapiens, UniProt P07949)
T26 construct: purchased DiscoveRx KINOMEscan

[2] = biological target: T27, RSK1(Kin.Dom.1-N-terminal) (Homo sapiens, UniProt Q15418)
T27 construct: RSK1(Kin.Dom.1-N-terminal); purchased DiscoveRx KINOMEscan
T27 sequence (Q15418 62-391 limits assumed): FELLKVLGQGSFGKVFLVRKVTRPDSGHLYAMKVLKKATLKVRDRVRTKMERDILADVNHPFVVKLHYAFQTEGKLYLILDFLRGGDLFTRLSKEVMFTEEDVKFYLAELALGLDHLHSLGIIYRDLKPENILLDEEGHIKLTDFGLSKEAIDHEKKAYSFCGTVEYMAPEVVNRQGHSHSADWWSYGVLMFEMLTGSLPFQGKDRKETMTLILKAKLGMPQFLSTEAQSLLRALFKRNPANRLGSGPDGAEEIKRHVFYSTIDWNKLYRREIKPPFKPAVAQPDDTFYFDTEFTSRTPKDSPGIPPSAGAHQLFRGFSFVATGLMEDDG

SIK = biological target: T28, SIK (Homo sapiens, UniProt P57059)
T28 construct: purchased DiscoveRx KINOMEscan
T28 sequence (P57059 whole entry): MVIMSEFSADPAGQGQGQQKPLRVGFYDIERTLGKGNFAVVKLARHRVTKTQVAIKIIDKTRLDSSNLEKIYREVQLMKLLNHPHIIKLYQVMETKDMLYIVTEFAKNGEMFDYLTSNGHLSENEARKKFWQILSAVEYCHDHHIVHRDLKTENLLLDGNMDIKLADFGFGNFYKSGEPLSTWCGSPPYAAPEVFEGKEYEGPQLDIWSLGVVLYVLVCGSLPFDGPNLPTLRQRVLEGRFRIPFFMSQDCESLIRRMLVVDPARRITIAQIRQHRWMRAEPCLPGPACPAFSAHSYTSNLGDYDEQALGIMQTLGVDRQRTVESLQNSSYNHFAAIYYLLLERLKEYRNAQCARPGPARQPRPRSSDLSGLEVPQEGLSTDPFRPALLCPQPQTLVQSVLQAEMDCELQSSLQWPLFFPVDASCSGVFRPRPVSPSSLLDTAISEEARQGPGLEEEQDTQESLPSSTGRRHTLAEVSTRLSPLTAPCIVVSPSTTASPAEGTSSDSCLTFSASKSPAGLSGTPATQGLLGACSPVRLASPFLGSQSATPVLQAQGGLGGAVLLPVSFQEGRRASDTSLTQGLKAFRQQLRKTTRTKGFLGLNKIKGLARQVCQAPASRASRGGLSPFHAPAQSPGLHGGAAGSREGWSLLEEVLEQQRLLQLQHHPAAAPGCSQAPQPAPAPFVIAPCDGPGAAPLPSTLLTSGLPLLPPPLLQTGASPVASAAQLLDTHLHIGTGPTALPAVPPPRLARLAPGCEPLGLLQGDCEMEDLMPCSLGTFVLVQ

SLK = biological target: T29, SLK (Homo sapiens, UniProt Q9H2G2)
T29 construct: purchased DiscoveRx KINOMEscan

SRPK3 = biological target: T30, SRPK3 (Homo sapiens, UniProt Q9UPE1)
T30 construct: purchased DiscoveRx KINOMEscan
T30 sequence (Q9UPE1 whole entry): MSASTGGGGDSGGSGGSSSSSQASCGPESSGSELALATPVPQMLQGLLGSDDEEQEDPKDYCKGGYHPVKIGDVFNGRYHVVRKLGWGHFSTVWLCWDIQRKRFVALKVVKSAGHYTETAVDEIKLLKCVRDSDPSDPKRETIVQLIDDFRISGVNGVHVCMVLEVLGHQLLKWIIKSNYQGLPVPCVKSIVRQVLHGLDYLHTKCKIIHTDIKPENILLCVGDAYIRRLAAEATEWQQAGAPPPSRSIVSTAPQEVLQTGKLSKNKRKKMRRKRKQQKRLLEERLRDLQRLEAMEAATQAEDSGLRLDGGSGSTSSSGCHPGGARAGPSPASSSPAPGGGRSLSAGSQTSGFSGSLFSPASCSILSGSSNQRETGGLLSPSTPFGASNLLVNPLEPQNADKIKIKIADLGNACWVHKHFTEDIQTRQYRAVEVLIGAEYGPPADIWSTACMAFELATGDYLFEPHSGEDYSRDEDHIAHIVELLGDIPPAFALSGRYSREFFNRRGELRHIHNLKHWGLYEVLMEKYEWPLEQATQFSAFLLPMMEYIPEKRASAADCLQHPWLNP

ULK2 = biological target: T31, ULK2 (Homo sapiens, UniProt Q8IYT8)
T31 construct: purchased DiscoveRx KINOMEscan

T2 sequence (Q9UM73 19-1620 L1196M): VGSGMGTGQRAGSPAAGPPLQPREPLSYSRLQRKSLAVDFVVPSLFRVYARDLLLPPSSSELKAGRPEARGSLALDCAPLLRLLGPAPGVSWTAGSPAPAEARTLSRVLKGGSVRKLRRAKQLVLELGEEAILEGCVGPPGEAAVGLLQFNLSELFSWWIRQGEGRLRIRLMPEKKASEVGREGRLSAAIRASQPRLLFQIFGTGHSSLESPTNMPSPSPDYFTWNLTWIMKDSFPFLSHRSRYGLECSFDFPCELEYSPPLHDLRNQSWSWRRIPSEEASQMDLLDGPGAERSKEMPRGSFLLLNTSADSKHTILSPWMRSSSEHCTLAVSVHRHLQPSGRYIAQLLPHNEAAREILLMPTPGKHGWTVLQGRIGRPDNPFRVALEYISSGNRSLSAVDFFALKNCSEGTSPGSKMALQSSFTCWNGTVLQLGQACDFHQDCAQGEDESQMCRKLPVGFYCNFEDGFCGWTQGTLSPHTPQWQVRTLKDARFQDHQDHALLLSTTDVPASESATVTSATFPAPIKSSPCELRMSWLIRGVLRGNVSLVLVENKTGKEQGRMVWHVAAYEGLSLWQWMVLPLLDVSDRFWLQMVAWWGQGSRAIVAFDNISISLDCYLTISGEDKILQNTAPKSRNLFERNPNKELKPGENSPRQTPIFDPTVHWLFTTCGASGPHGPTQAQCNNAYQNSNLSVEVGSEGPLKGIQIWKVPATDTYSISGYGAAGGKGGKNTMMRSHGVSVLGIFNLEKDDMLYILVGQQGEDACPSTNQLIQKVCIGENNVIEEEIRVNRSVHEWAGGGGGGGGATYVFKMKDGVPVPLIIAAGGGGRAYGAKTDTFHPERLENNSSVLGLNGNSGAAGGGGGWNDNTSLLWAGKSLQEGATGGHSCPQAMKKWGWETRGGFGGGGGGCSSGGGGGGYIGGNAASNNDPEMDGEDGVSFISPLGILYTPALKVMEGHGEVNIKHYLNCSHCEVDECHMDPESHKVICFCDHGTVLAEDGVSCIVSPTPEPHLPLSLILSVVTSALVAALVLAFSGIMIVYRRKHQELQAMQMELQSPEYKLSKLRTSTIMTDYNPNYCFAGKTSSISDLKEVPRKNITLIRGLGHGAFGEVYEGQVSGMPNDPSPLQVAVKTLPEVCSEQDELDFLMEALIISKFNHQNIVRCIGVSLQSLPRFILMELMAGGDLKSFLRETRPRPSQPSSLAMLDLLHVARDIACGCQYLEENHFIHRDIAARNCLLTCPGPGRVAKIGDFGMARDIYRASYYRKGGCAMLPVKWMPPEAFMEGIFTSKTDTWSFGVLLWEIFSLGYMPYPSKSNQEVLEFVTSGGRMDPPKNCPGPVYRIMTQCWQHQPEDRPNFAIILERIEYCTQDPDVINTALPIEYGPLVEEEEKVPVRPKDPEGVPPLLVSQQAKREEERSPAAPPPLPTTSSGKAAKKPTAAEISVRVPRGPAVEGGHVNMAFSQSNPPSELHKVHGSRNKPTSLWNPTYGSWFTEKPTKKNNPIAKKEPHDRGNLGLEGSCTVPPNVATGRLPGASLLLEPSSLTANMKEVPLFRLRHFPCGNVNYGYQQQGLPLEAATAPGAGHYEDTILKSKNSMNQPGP

CCN(C(=O)CO)[C@H]1CN(/C(=N\C#N)Nc2cccc(OC(F)F)c2)N=C1c1ccc(Cl)c(Cl)c1 [(S)-4]
remaining binding at 1 µM (ACVR2B): 100%
remaining binding at 1 µM (ALK(L1196M)): 92%
remaining binding at 1 µM (BMPR1B): 100%
remaining binding at 1 µM (CDC2L5): 81%
remaining binding at 1 µM (PRP4): 90%
remaining binding at 1 µM (CDKL1): 76%
remaining binding at 1 µM (CSNK1G1): 84%
remaining binding at 1 µM [1]: 87%
remaining binding at 1 µM (EGFR(L858R,T790M)): 100%
remaining binding at 1 µM (FLT4): 87%
remaining binding at 1 µM (HASPIN): 100%
remaining binding at 1 µM (IGF1R): 97%
remaining binding at 1 µM (JNK1): 96%
remaining binding at 1 µM (JNK3): 100%
remaining binding at 1 µM (MAP3K2): 100%
remaining binding at 1 µM (MARK2): 99%
remaining binding at 1 µM (MERTK): 73%
remaining binding at 1 µM (MYLK4): 100%
remaining binding at 1 µM (NDR1): 82%
remaining binding at 1 µM (NEK1): 93%
remaining binding at 1 µM (PIM2): 90%
remaining binding at 1 µM (PKAC-alpha): 74%
remaining binding at 1 µM (PKN2): 100%
remaining binding at 1 µM (PRKCD): 89%
remaining binding at 1 µM (PRKCQ): 100%
remaining binding at 1 µM (RET): 91%
remaining binding at 1 µM [2]: 100%
remaining binding at 1 µM (SIK): 98%
remaining binding at 1 µM (SLK): 66%
remaining binding at 1 µM (SRPK3): 79%
remaining binding at 1 µM (ULK2): 100%
